We go through 4 molecules from the NIST ThermoML archive (doi:10.1016/j.fluid.2005.03.023).

The conditions of series [1]: Crystal; DTA.
Series [2] can be described thus: Molar enthalpy of transition or fusion. The following applies: Crystal; DSC.

The structures appear in SMILES notation. Numbers after ± are expanded uncertainties.

Regarding `CC(=O)c1cccc(O)c1` [1-(3-hydroxyphenyl)ethanone], the Normal melting temperature in series [1] was found to be 93.6 ± 0.5 °C. In addition, in series [2], the “Molar enthalpy of transition or fusion” value was found to be 5.58 ± 0.165 kcal/mol.

As for `CC(=O)c1ccc(O)cc1` [4'-hydroxyacetophenone], in series [1], the Normal melting temperature came out at 108.2 ± 0.5 °C. The “Molar enthalpy of transition or fusion” value in series [2] was determined as 4.07 ± 0.127 kcal/mol.

For `CC(=O)c1ccc(N)cc1` [4-acetylaniline], in series [1], the Normal melting temperature was found to be 105.1 ± 0.5 °C. In addition, the “Molar enthalpy of transition or fusion” value in series [2] was found to be 4.67 ± 0.141 kcal/mol.

For the molecule `CC(=O)Nc1ccccc1` [N-phenylethanamide], in series [1], the Normal melting temperature came out at 113.8 ± 0.5 °C. For the same molecule, the “Molar enthalpy of transition or fusion” value in series [2] turned out to be 5.12 ± 0.153 kcal/mol.
